Results taken from US20210348164A1, “ENDOGENOUS CYTOPLASMIC ALU COMPLEMENTARY DNA IN AGE-RELATED MACULAR DEGENERATION” (University of Virginia Patent Foundation, priority 2018, published 2021).
Entries after “also recorded” stand apart in the source; their conditions may differ.

Legend:
[1] = tested on: Alu cDNA in primary human RPE cells; test: Alu cDNA in primary human RPE cells (Alu c-PCR, real-time PCR, in situ hybridization, equator blotting); assay type: cell-based; settings: primary human RPE cells exposed to Alu RNA, heat shock, or DICER1 AS; NNRTIs at high doses
Protocol: Cell culture and transfection. Primary mouse and human RPE cells were isolated as previously described (Kerur et al., 2018). All cells were maintained at 37° C. in a 5% CO2 environment. Mouse RPE cells were cultured in DMEM supplemented with 20% FBS and penicillin/streptomycin antibiotics at standard concentrations; primary human RPE cells were maintained in DMEM supplemented with 10% FBS and antibiotics. The human RPE cell line ARPE19 was cultured as previously described (Kerur et al., 2018) and maintained in DMEM-F12 containing penicillin/streptomycin, Fungizone, and gentamicin. HEK293T cells were cultured in DMEM with 10% fetal bovine serum (FBS) with 100 U/ml penicillin/streptomycin and 2 mM L-glutamine. Primary wild-type mouse bone marrow-derived macrophages (BMDMs) were isolated, and cultured in Iscove's Modified Dulbecco's Medium (IMDM) supplemented with 30% L929 supernatant containing macrophage-stimulating factor, nonessential amino acids, sodium pyruvate, 10% FBS and antibiotics, 50 μM β-mercaptoethanol (Seo et al., 2015), and serum starved in IMDM with 1% FBS and 100 U/ml penicillin/streptomycin overnight prior to LPS stimulation. NRTIs or NNRTIs were added 30 minutes prior to LPS stimulation and again 30 minutes prior to ATP activation. LPS (100 ng/mL) was added for 3-4 hours prior to the addition of ATP. Cell lysates were collected 30 minutes after addition of ATP (5 mM). Primary human subcutaneous pre-adipocytes (Catalogue No. PCS-210-010, ATCC, Manassas, Va., United States of America) and primary human dermal fibroblasts (Catalogue No. PCS-201-012, ATCC) were grown in fibroblast basal medium with fibroblast growth kit for low serum (ATCC).
Umbilical artery vascular smooth muscle cells (Catalogue No. CC-2579, Lonza, Morristown, N.J., United States of America) were grown in SMGM™-2 Smooth Muscle Growth Medium-2 BULLETKIT™ (Lonza). Primary human skeletal myoblasts (Catalogue No. A11440, Thermo Fisher Scientific) were grown in DMEM with 2% horse serum. Primary human epidermal keratinocytes (Catalogue NO. CO215C, Thermo Fisher Scientific) were grown in EPILIFE® Medium (Thermo Fisher Scientific). Human umbilical vein endothelial cells (HUVEC) were grown in HUVEC EGM™-2 Media (Lonza). Primary human peripheral blood mononuclear cells (Catalogue NO. PCS-800-011, ATCC) were directly used without culture for experiments. RPMI 1640 medium with 10% human serum with human GM-CSF (Miltenyi Biotec Inc., Auburn, Calif., United States of America) was used as media during the experiment. Transfections were performed according to the manufacturer's instructions (LIPOFECTAMINE® 2000, Invitrogen). For transfection of primary human peripheral blood mononuclear cells, HiPerFect Transfection Reagent (Qiagen) was used as previously described (Troegeler et al., 2014). NRTIs were administered 60 minutes before transfection and added again upon replacement of media at 8 hours. To induce acid injury or osmotic stress, primary human RPE cells were treated with HCl (pH 4.0 media) or H2O for 30 minutes, 1 hour, and 2 hours at 37° C. in 5% CO2, respectively. NIH3T3 Tet-ON cells were cultured in DMEM with 10% tetracycline-free fetal bovine serum (FBS) with 100 U/ml penicillin/streptomycin. NIH3T3 Tet-ON cells were transfected with pLD401 (see Taylor et al., 2013; gift of J. D. Boeke, Institute for Systems Genetics, NYU Langone Health, New York, New York, United States of America) and human L1 ORF1p abundance was monitored after 24 hours of doxycycline induction. […]

NLRP3 inflammasome = test: Caspase-1 activation in bone marrow-derived macrophages treated with LPS and ATP (immunoblot); assay type: cell-based; settings: primary mouse BMDM; LPS and ATP stimulation
Protocol: Western blotting. Cells and tissue were homogenized in RIPA buffer (Sigma-Aldrich) with protease and phosphatase inhibitors (Roche) or lysed directly in Laemmli buffer. Protein concentration was determined using Pierce BCA Protein Assay Kit (Thermo Fisher Scientific). Equal quantities of protein (10-50 μg) prepared in Laemmli buffer were resolved by SDS-PAGE on NOVEX® Tris-Glycine Gels (Invitrogen), or MINI-PROTEAN® TGX™ Precast Protein Gels (Bio-Rad Laboratories, Inc., Hercules, Calif., United States of America) and transferred onto Immobilon-FL PVDF membranes (0.2 or 0.45 μm; MilliporeSigma, Burlington, Mass., United States of America). The transferred membranes were blocked in ODYSSEY® Blocking Buffer (PBS) for 1 hour at room temperature and then incubated with primary antibody at 4° C. overnight. Immunoreactive bands were visualized using species-specific secondary antibodies conjugated with IRDYE®. The blot images were captured on ODYSSEY® imaging systems. […]

L1 reverse transcriptase = L1 reverse transcriptase (Homo sapiens, UniProt O00370); settings: Merluzzi et al., 1990; Dai et al., 2011; cited from earlier work
Sequence of L1 reverse transcriptase (O00370 whole entry, looked up): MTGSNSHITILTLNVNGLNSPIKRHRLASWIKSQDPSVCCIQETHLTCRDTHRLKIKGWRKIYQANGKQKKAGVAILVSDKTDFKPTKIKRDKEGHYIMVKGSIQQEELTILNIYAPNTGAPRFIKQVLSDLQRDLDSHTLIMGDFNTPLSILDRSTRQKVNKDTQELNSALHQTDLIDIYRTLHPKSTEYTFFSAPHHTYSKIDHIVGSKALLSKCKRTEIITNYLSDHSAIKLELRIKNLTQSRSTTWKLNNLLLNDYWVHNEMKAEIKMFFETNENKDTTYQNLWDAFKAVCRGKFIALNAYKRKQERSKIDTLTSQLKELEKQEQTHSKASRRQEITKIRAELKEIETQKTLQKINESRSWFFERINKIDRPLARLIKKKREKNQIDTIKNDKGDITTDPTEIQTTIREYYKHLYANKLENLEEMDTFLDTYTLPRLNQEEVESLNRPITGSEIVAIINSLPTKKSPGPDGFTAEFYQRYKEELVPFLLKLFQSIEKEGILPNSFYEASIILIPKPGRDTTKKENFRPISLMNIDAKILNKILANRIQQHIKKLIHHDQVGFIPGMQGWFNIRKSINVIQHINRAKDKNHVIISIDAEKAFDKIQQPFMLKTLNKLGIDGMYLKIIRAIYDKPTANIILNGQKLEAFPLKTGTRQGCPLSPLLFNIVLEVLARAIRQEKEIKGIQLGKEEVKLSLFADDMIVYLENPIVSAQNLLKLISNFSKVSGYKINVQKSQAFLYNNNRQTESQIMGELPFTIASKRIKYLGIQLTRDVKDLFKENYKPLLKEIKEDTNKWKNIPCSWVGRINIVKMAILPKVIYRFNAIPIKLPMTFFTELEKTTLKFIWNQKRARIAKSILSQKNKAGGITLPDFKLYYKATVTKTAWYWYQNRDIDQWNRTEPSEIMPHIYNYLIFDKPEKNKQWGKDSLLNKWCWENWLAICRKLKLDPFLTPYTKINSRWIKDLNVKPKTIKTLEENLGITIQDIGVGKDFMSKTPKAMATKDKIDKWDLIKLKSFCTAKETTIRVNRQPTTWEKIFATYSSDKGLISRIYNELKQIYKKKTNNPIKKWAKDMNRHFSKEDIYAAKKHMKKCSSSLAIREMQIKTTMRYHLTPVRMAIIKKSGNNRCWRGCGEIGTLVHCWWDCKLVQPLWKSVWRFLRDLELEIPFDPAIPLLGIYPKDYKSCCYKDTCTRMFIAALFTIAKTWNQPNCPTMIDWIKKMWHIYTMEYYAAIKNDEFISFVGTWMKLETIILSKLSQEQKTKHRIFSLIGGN

Compound	Alu cDNA induction [1]	caspase-1 activation / NLRP3 inflammasome activation (NLRP3 inflammasome)	inhibition of L1 reverse transcriptase (L1 reverse transcriptase)
Cc1ccnc2c1NC(=O)c1cccnc1N2C1CC1 [NVP, nevirapine]	did not prevent Alu cDNA synthesis	does not inhibit	does not inhibit L1 reverse transcriptase
L1 siRNA: siRNA targeting L1; cholesterol-conjugated mouse L1 siRNA (SEQ ID NOs: 48 and 49) in vivo, human L1 siRNA sequences in human cells (chain 1 ACUAUUACUCUGAUACCTT; chain 2 UGUACUAAGGUCAAAUCTT; cholesterol conjugated, position not given here)	prevented the production of Alu cDNA; also recorded: reduced	–	–
CC(C)Nc1cccnc1N1CCN(C(=O)c2cc3cc(NS(C)(=O)=O)ccc3[nH]2)CC1 [DLV, delavirdine]	prevented Alu cDNA synthesis; also recorded: reduced	did not inhibit NLRP3 inflammasome activation	inhibit L1 reverse transcriptase at high doses
O=C1Nc2ccc(Cl)cc2[C@@](C#CC2CC2)(C(F)(F)F)O1 [EFV, efavirenz]	prevented Alu cDNA synthesis; also recorded: reduced	did not inhibit NLRP3 inflammasome activation	inhibit L1 reverse transcriptase at high doses
